From patent publication US8361970B2, “Growth factor binding molecules” (University of South Florida, priority 2000, dated 2013)
pIC50: −log10 of the molar value. Where “and” joins values, the source holds several entries; their conditions need not be identical. Equal entries are not always repeated. Where two headings read alike, the source gives them in different places.

Legend:
[1] = tested on: aFGF-stimulated MAP kinase activation of p42 and p44; assay: Inhibition of aFGF stimulation of p42/p44 MAP kinase in NIH 3T3 cells; type: cell-based
Procedure: (§1) In other experiments, starved NIH 3T3 cells (PDGF-AA, PDGF-BB, aFGF, bFGF), NIH 3T3 cells overexpressing EGFR. IGF-1R or Flk-1 and the human breast carcinoma SkBr3 that overexpresses ErbB2 (HRGβ) are pretreated with GFB-111 (100 μM) for 5 min before 10 min stimulation with the indicated growth factors at the concentrations shown above and aFGF (10 ng/ml), bFGF (50 ng/ml), IGF-1 (50 ng/ml) and HRGβ (10 ng/ml). Cell lysates are then immunoblotted with anti-phospho Erk1/Erk2 as described above.
The ability of growth factor binding agents in the library of growth factor binding agents to block an aFGF signal is measured by aFGF-stimulation of MAP kinase activation of p42 and p44 essentially as described above for VEGF. NIH 3T3 cells are used as the target cell. […] A preferred embodiment of the invention is a compound that binds to acidic fibroblast growth factor, of the general structure III, in which R is n-butyl, n-propyl, or benzyl, and X1, X2, X3, and X4 optionally comprise covalently attached cyclic peptide loops of the general structure II, wherein R1, R2, R3, and R4 are each amino acid side chains that define a tetrapeptide sequence, wherein said tetrapeptide is covalently attached at the amino and carboxy termini of said tetrapeptide to a 3-aminomethyl-5-aminobenzamide linking group, and wherein said tetrapeptide sequence is as given, for example, in Table 5.

[2] = target: T1, PDGF-BB (Homo sapiens, UniProt P01127); assay: Inhibition of [125I]-PDGF-BB binding to its receptor on NIH 3T3 cells; settings: FIG. 2C
T1 construct: host or cells: NIH 3T3 cells carry the receptor
T1 sequence (P01127 82-190 limits assumed): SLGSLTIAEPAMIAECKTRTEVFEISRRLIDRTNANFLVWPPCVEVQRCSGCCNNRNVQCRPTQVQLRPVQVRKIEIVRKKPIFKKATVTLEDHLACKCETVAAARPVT
Procedure: (§2) NIH 3T3 (PDGF) or NIH 3T3 cells overexpressing either EGFR (EGF), IGFR (IGF) or Flk-1 (VEGF), are incubated with [^125I]-PDGF, [^125I]-EGF, [^125I]-IGF or [^125I]-VEGF, respectively (50,000 cpm per well) and increasing concentrations of GFB-111 or GFB-116. Cells are incubated at 4° C. for 1-3 h. After discarding media, the cells are washed 3 times with PBS and three times with Tris 25 mM pH 8.0, 1% T-X-100, 10% glycerol, 1% SDS. Lysates plus wash are counted. Excess of cold growth factors is used to obtain non-specific binding levels.
(§3) Whether GFB 111 can block [^125I]-PDGF-BB specific binding in NIH 3T3 cells is determined by pre-treatment of the PDGF-BB with increasing concentrations of GFB-111. FIG. 2C illustrates that in the absence of GFB-111, [^125I]-PDGF-BB is bound by NIH3T3 cells. However, pre-treatment with increasing concentrations of GFB-111, results in a concentration-dependent decrease in PDGF-BB binding.

[3] = tested on: angiogenesis in A-549 tumors; assay: Angiogenesis: Factor VIII immunostaining and microvessel count in A-549 tumors; type: in vivo, nude mice; settings: for Microvessel count (Mean ± SD) 250X / Microvessel count (Mean ± SD) 400X: A-549 tumor
Procedure: On the indicated termination day of each nude mouse experiment described above, (see also Table 2), the tumors are extracted and half frozen at −70° C., and half is fixed in 10% neutral buffered formalin for 6 hrs. After fixation the tissue samples are processed into paraffin blocks. Four micrometer-thick tissue sections are obtained from the paraffin blocks and stained with hematoxylin and eosin (H&E) (Richard-Allan Scientific, Kalamazoo, Mich.) using standard histologic techniques. Tissue sections are also subjected to immunostaining for Factor VIII using the avidin biotin peroxidase complex technique (Vectastatin Elite ABC Kit, Vector, Burlingame, Calif.). Rabbit polyclonal FVIII antibody (Von Willebrand Factor, Dako Corporation, Carpinteria, Calif.) is used at 1:400 dilution, following microwave antigen retrieval (4 cycles of 5 minutes each on high in 0.1M citrate buffer).

[4] = target: T1, PDGF-BB; assay: Binding to PDGF-BB by native PAGE / SDS-PAGE gel electrophoresis
Procedure: GFB-111 (50 μM) is incubated with buffer A (PBS 0.5% BSA) or PDGF-BB (1, 3 and 4µM in buffer A) at room temperature for 10 minutes. The mixtures are then loaded onto a native 4% PAGE. The gel is then stained with silver nitrate. Duplicate lanes are run in the same gel but are not stained. Bands corresponding to the boxed area are cut out of the lanes of the gel that is not stained, denatured with SDS-PAGE loading buffer (Tris 100 mM pH 6.8, 15% Glycerol, 3% SDS, 7.5% b-mercaptoethanol, 0.05% bromophenol blue), loaded onto a 4% SDS-PAGE gel and silver stained.
The structure activity relationship results in Table 1 are consistent with GFB-111 being a PDGF-BB binding molecule. […] PDGF to its receptor on NIH 3T3 cells is determined by gel electrophoresis by mixing GFB-111 with PDGF-BB. […] FIG. 2B illustrates that the GFB-111 standard (lane 5) as well as the GFB-111 band cut out of FIG. 2A gel (lane 1) migrates on SDS-PAGE as a single band that elutes faster than the dye front. Their separation on SDS-PAGE (lane 2) is confirmed by mixing PDGF-BB standard (lane 4) and GFB-111 standard (lane 5).
GFB-111 is incubated with increasing concentrations of PDGF-BB and the mixtures are then loaded onto native PAGE. […]

[5] = tested on: PDGF-stimulated Erk1/Erk2 activation; assay: Inhibition of PDGF-stimulated activation of MAPK Erk1/Erk2 (p44/p42) in NIH 3T3 cells; type: cell-based; settings: for Inhibition of PDGF-stimulated MAPKinase activation: FIG. 13
Procedure: Starved NIII 3T3 cells (PDGF-BB and PDGF-AA), NIH 3T3 cells overexpressing either EGFR (EGF) or Flk-1 (VEGF) are pre-treated with the indicated concentrations of GFB-111 for 5 minutes before 10 minutes of stimulation with PDGF-BB (10 ng/ml), PDGF-AA (10 ng/ml), EGF (100 ng/ml) and VEGF (50 ng/ml). Cell lysates are run on SDS-PAGE gels, then transferred to nitrocellulose and Western blotted with anti-phosphotyrosine (4G 10) or anti-phosphorylated Erk1/Erk2 (New England Biolabs).
as §1

[6] = tested on: human lung adenocarcinoma A-549; assay: Antitumor efficacy, A-549 xenograft in nude mice; type: in vivo; settings: for Inhibition of A-549 tumor growth in nude mice: 50 mg per kg per day
[7] = tested on: HRGβ-activation of Erk1/Erk2; assay: HRGβ activation of Erk1/Erk2 in SkBr3 breast carcinoma cells overexpressing ErbB2; type: cell-based, human; settings: concentrations as high as 100 μM
Procedure: as §1

[8] = target: T2, IGF-1 (Homo sapiens, UniProt P05019); assay: Inhibition of [125I]-IGF-1 binding to NIH 3T3 cells overexpressing IGF-1R; settings: 10 μM
T2 construct: host or cells: NIH 3T3 cells transfected with the IGF-1R gene carry the receptor
T2 sequence (P05019 49-118 limits assumed, species assumed): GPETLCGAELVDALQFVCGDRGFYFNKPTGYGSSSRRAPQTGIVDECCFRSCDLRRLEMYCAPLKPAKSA
Procedure: as §2, §3

[9] = NIH 3T3, PDGF stimulated, head p42/Erk2 (p42 for GFB-132 to 137), read-out: (IC50) Inhibition p42/Erk2

Row | Molecule | Block of aFGF-stimulation of MAP kinase activation of p42 and p44 ([1]; NIH 3T3) | Block of PDGF-BB binding to its receptor [2] | Microvessel count (Mean ± SD) 250X ([3]; 50 mpk) | Microvessel count (Mean ± SD) 400X ([3]; 50 mpk) | Inhibition of angiogenesis ([3]; A-549 tumors) | Inhibition of angiogenesis by microvessel counting ([3]; A-549 tumors, 50 mpk) [%] | Binding to PDGF-BB (complex on native PAGE) [4] | Inhibition of PDGF-stimulated MAPKinase activation [5] | pIC50 [5, 9] | Inhibition of A-549 tumor growth in nude mice [6] | aFGF-activation of Erk1/Erk2 ([1]; concentrations as high as 100 μM) | Microvessel count (Mean ± SD) 250X ([3]; 50 mpk, 50 mg/kg) | Microvessel count (Mean ± SD) 400X ([3]; 50 mpk, 50 mg/kg) | pIC50 ([5]; NIH 3T3, FIG. 3A, read-out: IC50 PDGF-dependent activation of Erk1) | pIC50 ([5]; NIH 3T3, FIG. 3A, read-out: IC50 PDGF-dependent activation of Erk2) | HRGβ-activation of Erk1/Erk2 [7] | % Tumor growth inhibition ([6]; A-549, 50 mpk, day in parentheses in cell) | Effect on [125I]-IGF-1 binding [8]
1 | GKGK [GFB-116] | very effective | not | 5.56 ± 1.75 | 3.46 ± 1.19 | efficacious | 70 | does not bind | does not | 4.55 | inhibits the growth | – | – | – | – | – | – | – | –
2 | CCCCOc1c2cc(C(=O)Nc3cc4cc(c3)C(=O)NCC(=O)N[C@@H](CC(=O)O)C(=O)NCC(=O)N[C@@H](Cc3ccc(O)cc3)C(=O)NC4)cc1Cc1cc(C(=O)Nc3cc4cc(c3)C(=O)NCC(=O)N[C@@H](CC(=O)O)C(=O)NCC(=O)N[C@@H](Cc3ccc(O)cc3)C(=O)NC4)cc(c1OCCCC)Cc1cc(C(=O)Nc3cc4cc(c3)C(=O)NCC(=O)N[C@@H](CC(=O)O)C(=O)NCC(=O)N[C@@H](Cc3ccc(O)cc3)C(=O)NC4)cc(c1OCCCC)Cc1cc(C(=O)Nc3cc4cc(c3)C(=O)NCC(=O)N[C@@H](CC(=O)O)C(=O)NCC(=O)N[C@@H](Cc3ccc(O)cc3)C(=O)NC4)cc(c1OCCCC)C2 [GFB-111] | – | blocked | – | – | strongly | – | does indeed contain both PDGF-BB and GFB-111 | inhibits | 5.59 | effective | minimally affected | 3.63 ± 1.36 and 5.68 ± 1.74 | 2.34 ± 1.01 and 3.58 ± 1.01 | 6.10 | 5.92 | minimally affected | 62% (30) and 53% (31) and 64% (27) | lack of significant effects
